Laboratory results from PMC3228261 (Chemistry (Weinheim an der Bergstrasse, Germany), 2011).
Like-named read-outs stand apart in the source and are kept apart here.

How the values were obtained:
L-929 mouse fibroblasts = test: MTT test, growth inhibition of L-929 mouse fibroblasts; type: cell-based; conditions: read-out: IC50 (L929), 5 d incubation, MTT assay
[1] = tested on: human primary foreskin fibroblast (HFF) cells; conditions: read-out: EC50 (HFF), viable cells after 72 h, triplicates
[2] = tested on: human primary foreskin fibroblast (HFF) cells; test: cells; conditions: 72 h, read-out: EC50 (HFF)
in vitro = conditions: human

SMILES	IC50 (L-929 mouse fibroblasts) [nM]	EC50 [1] [nM]	EC50 [2] [nM]	EC50 at 72 h (in vitro) [nM]
CO[C@@H]1C(=O)O[C@H](C)[C@H](C)/C=C(\C)C[C@H](C)C(=O)N[C@@H](C)C(=O)N(C)[C@H](Cc2c[nH]c3ccccc23)C(=O)N[C@H]1c1ccc(O)cc1 [chon A_np (2a), chondramide A]	56 ± 13	118 ± 23	–	–
CO[C@@H]1C(=O)O[C@H](C)[C@@H](C)C=C(C)C[C@H](C)C(=O)N[C@@H](C)C(=O)N(C)[C@H](Cc2c(Cl)[nH]c3ccccc23)C(=O)NC1c1ccc(O)cc1 (stereo partly drawn) [chon B_np (3), chondramide B]	–	44 ± 5	–	–
C/C1=C\[C@@H](C)[C@@H](C)OC(=O)C[C@H](c2ccc(O)cc2)NC(=O)[C@@H](Cc2c[nH]c3ccccc23)N(C)C(=O)[C@H](C)NC(=O)[C@@H](C)C1 [chon C_np (4), chondramide C]	–	36 ± 7	–	–
C/C1=C\[C@H](C)C[C@H](C)OC(=O)C[C@H](c2ccc(O)cc2)NC(=O)[C@@H](Cc2c(Br)[nH]c3ccccc23)N(C)C(=O)[C@H](C)NC(=O)[C@@H](C)C1 [jasplakinolide_np (1), jasplakinolide]	–	–	28 ± 4	~30
